Article PMC10939060 (Bioorganic & medicinal chemistry letters, 2022)
Marks after values point to notes of the source that are not given here.

Assays:
[1] = target: T1, hM5 (Homo sapiens, UniProt P08912); test: Calcium mobilization assay with hM5-CHO cells, EC80 acetylcholine; format: cell-based; details: for hM5 IC50: antagonist
T1 sequence (P08912 1-532): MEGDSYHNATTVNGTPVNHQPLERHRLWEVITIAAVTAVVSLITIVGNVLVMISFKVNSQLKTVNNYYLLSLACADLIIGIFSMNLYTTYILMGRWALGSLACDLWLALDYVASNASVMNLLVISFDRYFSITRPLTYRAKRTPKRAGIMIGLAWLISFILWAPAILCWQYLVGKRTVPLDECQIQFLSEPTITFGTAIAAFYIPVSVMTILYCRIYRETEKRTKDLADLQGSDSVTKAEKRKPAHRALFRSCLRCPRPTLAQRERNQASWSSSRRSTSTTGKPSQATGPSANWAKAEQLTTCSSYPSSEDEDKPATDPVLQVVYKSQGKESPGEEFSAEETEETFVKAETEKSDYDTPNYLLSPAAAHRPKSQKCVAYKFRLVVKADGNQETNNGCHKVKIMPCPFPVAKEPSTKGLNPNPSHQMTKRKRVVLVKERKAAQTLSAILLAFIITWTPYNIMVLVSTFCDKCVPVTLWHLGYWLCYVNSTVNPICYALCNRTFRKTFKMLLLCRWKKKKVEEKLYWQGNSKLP

[2] = In vitro clearance; format: in vitro ADME, human; details: for Predicted CLhep: human (h)
[3] = In vitro clearance; format: in vitro ADME, rat; details: for Predicted CLhep: rat (r)
[4] = target: T2, hM4 (Homo sapiens, UniProt P08173); test: Subtype selectivity, hM4; format: cell-based
T2 sequence (P08173 1-479): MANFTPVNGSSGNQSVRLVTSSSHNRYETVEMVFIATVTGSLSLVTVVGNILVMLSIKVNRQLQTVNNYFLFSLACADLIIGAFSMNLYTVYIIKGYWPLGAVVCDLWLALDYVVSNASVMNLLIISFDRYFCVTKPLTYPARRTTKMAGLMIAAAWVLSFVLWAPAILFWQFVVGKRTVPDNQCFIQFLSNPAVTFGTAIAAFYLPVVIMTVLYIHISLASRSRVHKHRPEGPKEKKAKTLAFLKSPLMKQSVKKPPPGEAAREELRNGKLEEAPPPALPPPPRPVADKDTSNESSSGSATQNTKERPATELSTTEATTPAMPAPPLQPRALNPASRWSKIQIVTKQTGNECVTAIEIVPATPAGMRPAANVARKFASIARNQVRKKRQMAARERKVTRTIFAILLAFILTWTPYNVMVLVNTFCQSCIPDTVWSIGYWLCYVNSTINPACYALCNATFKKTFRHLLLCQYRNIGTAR

[5] = target: T3, hM2 (Homo sapiens, UniProt P08172); test: Subtype selectivity, hM2; format: cell-based; details: printed as hM2-4
T3 sequence (P08172 1-466): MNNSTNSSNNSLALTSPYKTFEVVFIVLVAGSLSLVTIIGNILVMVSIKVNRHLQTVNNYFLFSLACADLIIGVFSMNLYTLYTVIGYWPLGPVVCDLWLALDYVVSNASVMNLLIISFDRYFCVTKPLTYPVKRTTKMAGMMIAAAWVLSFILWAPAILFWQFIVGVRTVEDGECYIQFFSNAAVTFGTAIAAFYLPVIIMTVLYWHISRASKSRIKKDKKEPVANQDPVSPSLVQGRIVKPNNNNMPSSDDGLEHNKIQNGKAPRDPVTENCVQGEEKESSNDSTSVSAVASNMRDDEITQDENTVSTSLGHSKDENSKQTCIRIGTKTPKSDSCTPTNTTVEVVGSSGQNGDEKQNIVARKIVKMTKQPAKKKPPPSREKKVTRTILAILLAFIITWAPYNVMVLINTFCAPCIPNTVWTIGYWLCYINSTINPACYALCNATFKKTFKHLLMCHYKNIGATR

[6] = target: hM3 (Homo sapiens, UniProt P20309); test: Subtype selectivity, hM3; format: cell-based; details: printed as hM2-4
hM3, sequence (P20309 whole entry): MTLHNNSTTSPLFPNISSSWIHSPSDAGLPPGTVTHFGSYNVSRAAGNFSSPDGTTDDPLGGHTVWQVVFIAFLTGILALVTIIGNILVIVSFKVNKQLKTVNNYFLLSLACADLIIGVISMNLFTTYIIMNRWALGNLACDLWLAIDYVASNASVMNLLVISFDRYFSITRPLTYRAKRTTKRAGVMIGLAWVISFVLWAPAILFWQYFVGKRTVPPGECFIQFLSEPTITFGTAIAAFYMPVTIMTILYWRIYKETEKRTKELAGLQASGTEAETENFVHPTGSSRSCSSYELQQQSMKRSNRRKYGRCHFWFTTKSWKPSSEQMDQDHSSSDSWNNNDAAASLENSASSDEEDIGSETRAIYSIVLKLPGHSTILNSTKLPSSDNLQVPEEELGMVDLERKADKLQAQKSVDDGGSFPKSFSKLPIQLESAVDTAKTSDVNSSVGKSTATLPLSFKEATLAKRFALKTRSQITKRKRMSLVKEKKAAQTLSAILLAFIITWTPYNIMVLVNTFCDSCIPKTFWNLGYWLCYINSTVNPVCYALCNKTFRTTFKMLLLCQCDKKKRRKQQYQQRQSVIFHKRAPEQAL

Row | hM5 ACh Min [1] | Predicted CLhep [2] [mL/min/kg] | Predicted CLhep [3] [mL/min/kg] | SMILES | further results
1 | 2^b % | 10 | 52 | O=C(Nc1ccc2scnc2c1)C1CCN(S(=O)(=O)c2cccnc2)CC1 [29e] | –
2 | – | 18 | 62 | C[C@@H]1C[C@@H](C(=O)Nc2ccc3scnc3c2)CCN1S(=O)(=O)c1ccc2c(c1)CCO2 (racemic) [(rac)-25] | –
3 | – | – | 28 | Cc1nn(C)cc1S(=O)(=O)N1CCC(C(=O)Nc2ccc3scnc3c2)CC1 [29f] | –
4 | – | 19 | 66 | CC1COc2ccc(S(=O)(=O)N3CCC(C(=O)Nc4ccc5scnc5c4)CC3)cc21 (racemic) [(rac)-26] | –
5 | 3^b % | 11 | 33 | O=C(Nc1ccc2scnc2c1)C1CCN(S(=O)(=O)c2ccc(Cl)nc2)CC1 [29c] | –
6 | – | 13 | 38 | O=C(Nc1ccc2scnc2c1)C1CCN(S(=O)(=O)c2ccc3ncsc3c2)CC1 [29a] | CLint scaled ([2]; human): 13 mL/min/kg; CLint scaled ([3]; rat): 38 mL/min/kg
7 | 2^c % | 19 | 62 | C[C@@H]1C[C@H](C(=O)Nc2ccc3scnc3c2)CCN1S(=O)(=O)c1ccc2c(c1)CCO2 (racemic) [(rac)-24] | –
8 | inactive | – | – | O=C(Nc1ccc2ncnn2c1)C1CCN(S(=O)(=O)c2ccc3c(c2)CCO3)CC1 [28b] | hM5 IC50 [1]: inactive
9 | 19^c % | 16 | 60 | Cc1nc2cc(NC(=O)C3CCN(S(=O)(=O)c4ccc5c(c4)CCO5)CC3)ccc2s1 [compound 20] | –
10 | – | 10 | 53 | O=C(Nc1ccc2scnc2c1)C1CCN(S(=O)(=O)c2ccc3ncccc3c2)CC1 [29b] | –
11 | – | 18 | 64 | O=C(Nc1ccc2snnc2c1)C1CCN(S(=O)(=O)c2ccc3c(c2)CCO3)CC1 [28g] | –
12 | – | 5 | 55 | Cc1nn(C)cc1S(=O)(=O)N1CC[C@H](C(=O)Nc2ccc3scnc3c2)[C@@H](F)C1 (racemic) [(rac)-30a] | –
13 | inactive | – | – | O=C(Nc1ccc2nccnc2c1)C1CCN(S(=O)(=O)c2ccc3c(c2)CCO3)CC1 [28e] | hM5 IC50 [1]: inactive
14 | – | – | – | O=C(Nc1ccc2scnc2c1)C1CCN(S(=O)(=O)c2ccc(Cl)s2)CC1 [compound 4] | hM4 IC50 [4]: inactive; hM2 IC50 [5]: inactive; hM3 IC50 [6]: inactive
15 | inactive | – | – | O=C(Nc1ccc2occc2c1)C1CCN(S(=O)(=O)c2ccc3c(c2)CCO3)CC1 [28a] | hM5 IC50 [1]: inactive
16 | 3^c % | 19 | 62 | C[C@@H]1CN(S(=O)(=O)c2ccc3c(c2)CCO3)CC[C@@H]1C(=O)Nc1ccc2scnc2c1 (racemic) [(rac)-22] | –
17 | inactive | – | – | O=C(Nc1ccc2nncn2c1)C1CCN(S(=O)(=O)c2ccc3c(c2)CCO3)CC1 [28c] | hM5 IC50 [1]: inactive
18 | – | 4 | 29 | Cn1ncc(S(=O)(=O)N2CC[C@H](C(=O)Nc3ccc4scnc4c3)[C@@H](F)C2)c1Cl (racemic) [(rac)-30b] | –
19 | – | – | – | Cn1ccnc1NC(=O)C1CCN(S(=O)(=O)c2ccc3c(c2)CCO3)CC1 [compound 6] | hM5 IC50 [1]: inactive
20 | inactive | – | – | O=C(Nc1cnc2sccc2c1)C1CCN(S(=O)(=O)c2ccc3c(c2)CCO3)CC1 [28d] | hM5 IC50 [1]: inactive
21 | – | 5 | 37 | Cc1ncc(S(=O)(=O)N2CC[C@H](C(=O)Nc3ccc4scnc4c3)[C@@H](F)C2)s1 (racemic) [(rac)-30c] | –
22 | 3^c % | 17 | 61 | C[C@H]1CN(S(=O)(=O)c2ccc3c(c2)CCO3)CC[C@@H]1C(=O)Nc1ccc2scnc2c1 (racemic) [(rac)-23] | –
23 | – | 17 | 64 | O=C(Nc1ccc2cccnc2c1)C1CCN(S(=O)(=O)c2ccc3c(c2)CCO3)CC1 [28f] | –
24 | – | 4 | 27 | Cc1ccc(S(=O)(=O)N2CCC(C(=O)Nc3ccc4scnc4c3)CC2)cn1 [29d] | –
